Test results reported in patent US20250325676A1, “CAMPTOTHECIN PRODRUG AND PHARMACEUTICAL COMPOSITION THEREOF” (TIANJIN HEMAY ONCOLOGY PHARMACEUTICAL CO., LTD, priority 2022, published 2025).
Read-outs that look alike come from different tables or passages of the source.

Assays:
[1] = test system: Fadu; assay: In vitro inhibition of human tumor cells, Fadu, MTT method; assay type: cell-based
[2] = test system: HCT116; assay: In vitro inhibition of human tumor cells, HCT116, MTT method; assay type: cell-based
Method: (§1) The cells were allowed to adhere overnight.
(§2) Adherent cells: Culture medium was aspirated and 100 μl/wells of basal culture (generally refers to medium without fetal bovine serum (FBS) and other additives) containing 0.5 mg/ml MTT were added. The cells were cultured for 3 hours. MTT-containing basal medium was aspirated and 100 μl/wells of DMSO were added to dissolve formazan.
(§3) Unstably adherent cells: Unstably adherent cells were directly added to the MTT solution to achieve the concentration of 0.5 mg/ml and cultured for 3 hours. The ternary solution in an equal volume to the system was added to the system to dissolve the formazan.
(§4) The DMSO concentration was 0.1%.

[3] = test system: MDA-MB-468; assay: In vitro inhibition of human tumor cells, MDA-MB-468, SRB method
Method: (§6) 1.1.2 Cell culture method: Cells were cultured in complete medium, 37° C., 5% CO2, saturated humidity to log growth phase (adherent cells generally attended to complete fusion), and cells were collected for subsequent experiments (adherent cells were first digested with trypsin/ethylene diamine tetraacetic acid (EDTA) to remove adherent).
(§7) 1.1.3 96-well cell culture plates (hereinafter referred to as 96-well plates) were inoculated with a certain number of cells (see Table 1 for details). The cells were allowed to adhere overnight. […] Finally, the total amount of cell protein in the assay wells was determined by the SRB method, or the cell viability was determined by the MTT method:
(§8) The culture medium was aspirated from the wells and the cells were fixed for 1 hour or more by adding 10% trichloroacetic acid. Trichloroacetic acid was removed. The resultant was washed with H2O and stained with 0.4% SRB for 15 to 30 minutes. Excess SRB was removed. The resultant was washed with 1% acetic acid. The protein-bound SRB was dissolved by adding 10 mM of 100 μl Tris (trishydroxymethylaminomethane). Tests were carried out at the wavelength of 570 nm.
(§9) 1.1.4 dilution and addition of β-glucuronidase: 1 to 2 mg of β-glucuronidase was weighed and dissolved in PBS to give a 2 mg/ml of stock solution. […] 80 μl of enzyme working solution was added to the enzyme-containing assay wells. The amount of β-glucuronidase was 1 μg/wells. No enzyme-containing assay wells were added to the 80 μl of complete medium.
(§10) The assay wells were charged with 20 μl of 10× compound working solution. The final volume was 200 μl per well. The DMSO concentration was 0.1%.
(§11) 1.1.6 Compound inhibition activity calculation: The test included a compound test group, a compound-free positive solvent control group (PC) and a compound-free negative solvent control group (NC). […] The average inhibition rate and the standard deviation (SD) were obtained from the repeated test wells. The average inhibition rate was plotted on the basis of the compound concentration as an abscissa and distributed in the form of logarithms. The curve was fitted to the Logistic 4 parameter equation. […] The test was generally repeated to obtain 3 valid results.

[4] = test system: SW620; assay: In vitro inhibition of human tumor cells, SW620, SRB method; assay type: cell-based
Source text: as §1
(§5) Trichloroacetic acid was removed. […] Excess SRB was removed.
as §4

[5] = test system: LoVo; assay: In vitro inhibition of human tumor cells, LoVo, SRB method; assay type: cell-based
Source text: as §1, §5, §4

[6] = test system: human colon cancer LoVo; settings: 30 mg/kg i.v. qw × 2, LoVo model
Method: An allogeneic transplantation model of human colon cancer LoVo was established in nude mice subcutaneously using a tumor block inoculation method. When the tumor volume of the allogeneic transplantation was about 100 to 300 mm^3 and kept stable, the experimental animals were randomly divided into groups according to the tumor volume (day 0) by using a remainder method. The tumor volume was measured 2 to 3 times a week. At the end of the dosage period, the experimental animals were sacrificed. The subcutaneous tumors were peeled and weighed. The anti-tumor activity of the drug against the model was evaluated based on tumor volume and tumor weight-related data.
(§12) The calculation formula of the tumor volume was: Volume=0.5×long diameter×short diameter×short diameter.
V0 was the resulting tumor volume measured at the time of dosing in groups (i.e., d0) and Vt is the tumor volume at each measurement.
(§13) T was the subject and C was the model control.
TRTV was the average RTV of the subject and CRTV was the average RTV of the model control group.
(§14) Wn: average body weight of each group of experimental animals on day n, and W0: average body weight of each group of experimental animals on day 0.

[7] = test system: human colon cancer SW620; settings: 30 mg/kg i.v. qw × 2, SW620 model
Method: An allogeneic transplantation model of human colon cancer SW620 was established in nude mice subcutaneously using a tumor block inoculation method. When the tumor volume of the allogeneic transplantation was about 100 to 300 mm^3 and remained stable, the experimental animals were randomly divided into groups according to the size of the tumor volume (day 0) by using a remainder method. The tumor volume was measured 2 to 3 times a week. At the end of the dosage period, the experimental animals were sacrificed. The subcutaneous tumors were peeled and weighed. The anti-tumor activity of the drug against the model was evaluated based on tumor volume and tumor weight-related data.
as §12
(§15) V0 was the resulting tumor volume measured at the time of dosing in groups (i.e., d0) and Vt was the tumor volume at each measurement.
TRTV was the average value of RTV of the subject, and CRTV was the average RTV of the model control group.
as §14

[8] = test system: A375; assay: In vitro inhibition of human tumor cells, A375, SRB method
Method: as §6, §7, §8, §9, §10, §11

[9] = test system: 22RV1; assay: In vitro inhibition of human tumor cells, 22RV1, SRB method
Method: as §6, §7, §8, §9, §10, §11

[10] = test system: NCI-H460; assay: In vitro inhibition of human tumor cells, NCI-H460, MTT method; assay type: cell-based
Method: as §1, §2, §3, §4

[11] = test system: BxPC-3; assay: In vitro inhibition of human tumor cells, BxPC-3, MTT method; assay type: cell-based
Method: as §1, §2, §3, §4

[12] = test system: BEL-7404; assay: In vitro inhibition of human tumor cells, BEL-7404, SRB method
Method: as §6, §7, §8, §9, §10, §11

[13] = test system: human pancreatic cancer BxPC-3; settings: 30 mg/kg i.v. qw × 2
Method: (§16) When the tumor volume of the allogeneic transplantation was about 100 to 300 mm^3 and remained stable, the experimental animals were randomly divided into groups according to the size of the tumor volume (day 0) by using a remainder method. The tumor volume was measured 2 to 3 times a week. At the end of the dosage period, the experimental animals were sacrificed. The subcutaneous tumors were peeled and weighed. The anti-tumor activity of the drug against the model was evaluated based on tumor volume and tumor weight-related data.
as §12, §15, §13
(§17) TRTV was the average RTV of the subject, and CRTV was the average RTV of the model control group.
as §14
(§18) In the large tumor efficacy test after the second grouping of the G5 group, since the number of samples in each group of G6.1 and G6.4 was less than three, the relevant data of the large tumor efficacy test were statistically analyzed among groups using the T-Test method.

[14] = test system: NCI-N87; assay: In vitro inhibition of human tumor cells, NCI-N87, MTT method; assay type: cell-based
[15] = test system: human colon cancer HCT116; assay: Growth of human colon cancer HCT116 in allogeneic transplantation model; assay type: in vivo, nude mice; settings: for T/C (%) / Tumor inhibition rate (%): 10 mg/kg i.v. qw × 2
Method: as §16, §12, §15, §17, §14

[16] = test system: human small cell lung cancer NCI-H446; settings: 20 mg/kg i.v. qw × 2, NCI-H446 model
Method: An allogeneic transplantation model of human small cell lung cancer NCI-H446 was established in nude mice subcutaneously using a tumor block inoculation method. When the tumor volume of the allogeneic transplantation was about 100 to 300 mm^3 and remained stable, the experimental animals were randomly divided into groups according to the size of the tumor volume (day 0, i.e., d0) using a remainder method. The tumor volume was measured 2 to 3 times a week. At the end of the dosage period, the experimental animals were sacrificed. The subcutaneous tumors were peeled and weighed. The anti-tumor activity of the drug against the model was evaluated based on tumor volume and tumor weight-related data.
as §12, §15, §13, §17, §14

[17] = test system: human pancreatic cancer BxPC-3; assay: Growth of human pancreatic cancer BxPC-3 in allogeneic transplantation model; assay type: in vivo, nude mice; settings: 25 mg/kg i.v. qw × 2, BxPC-3 model
Method: as §16, §12, §15, §13, §17, §14, §18

[18] = test system: human gastric cancer NCI-N87; assay: Growth of human gastric cancer NCI-N87 in allogeneic transplantation model; assay type: in vivo, nude mice
Method: The tumor volume was measured 2 to 3 times per week. […] The subcutaneous tumors were peeled and weighed.
The calculation formula of the tumor volume: Volume=0.5×long diameter×short diameter×short diameter.

[19] = test system: human colon cancer HCT116; settings: 30 mg/kg i.v. qw × 2
Source text: When the tumor volume was more than 600 mm^3 and stable growth was maintained, the experimental animals were randomly divided by the remainder method and administered according to the size of the tumor volume. […] The subcutaneous tumors were stripped and weighed.
T was the subject and C is the model control.
Tumor volume growth was observed on a regular basis after completion of dosing.

[20] = No βGU (direct effects of compound on cells)
[21] = BxPC-3 large tumors after irinotecan
[22] = HCT116 large tumor after irinotecan

4-amino-6-((E)-(4′-(6-(4-((2-(((S)-4,11-diethyl-4-hydroxy-3,14-dioxy-3,4,12,14-tetrahydro-1H-pyrano[3′,4′:6,7]indolazo[1,2-b]quinolin-9-yl)oxy)methyl)-5-(((2S,3R,4S,5 S,6S)-3,4,5-trihydroxy-6-(methoxycarbonyl)tetrahydro-2H-pyran-2-yl)oxy)phenoxy)methyl)-1H-1,2,3-triazol-1-yl)hexanamido)-3,3′-dimethyl-[1,1′-biphenyl]-4-yl)diazenyl)-5-hydroxynaphthalene-1,3-disulfonate disodium [Example 21]
IC50 ([1]; Adding βGU): 9.8 nM
IC50 ([1]; No βGU): 298 nM
IC50 ([2]; Adding βGU (β-glucuronidase)): 35 nM
IC50 [2, 20]: 244 nM
IC50 ([3]; Adding βGU): 42 nM
IC50 ([3]; No βGU): 177 nM
IC50 ([4]; Adding βGU): 23 nM
IC50 ([4]; No βGU): 764 nM
IC50 ([5]; Adding βGU): 45 nM
IC50 ([5]; No βGU): 720 nM
T/C (%) [6]: 9.8%
Tumor inhibition rate (%) [6]: 93.1%
T/C (%) [7]: 0.5%
Tumor inhibition rate (%) [7]: 99.8%
IC50 ([8]; Adding βGU): 8.8 nM
IC50 ([8]; No βGU): 556 nM
IC50 ([9]; Adding βGU): 14.5 nM
IC50 ([9]; No βGU): 399 nM
IC50 ([10]; Adding βGU): 80 nM
IC50 ([10]; No βGU): 770 nM
IC50 ([11]; Adding βGU): 62 nM
IC50 ([11]; No βGU): 688 nM
IC50 ([12]; Adding βGU): 28 nM
IC50 ([12]; No βGU): 439 nM

CCc1c2c(nc3ccc(OCc4ccc(O[C@@H]5O[C@H](C(=O)[O-])[C@@H](O)[C@H](O)[C@H]5O)cc4OCc4cn(CCCCCC(=O)Nc5ccc(-c6ccc(/N=N/c7ccc8c(S(=O)(=O)[O-])cc(S(=O)(=O)[O-])c(N)c8c7O)c(C)c6)cc5C)nn4)cc13)-c1cc3c(c(=O)n1C2)COC(=O)[C@]3(O)CC.[Na+].[Na+].[Na+] [Example 7, (2S,3S,4S,5R,6S)-6-(3-((1-(6-((4′-((E)-(8-amino-1-hydroxy-5,7-disulfonicnaphthalen-2-yl)diazenyl)-3,3′-dimethyl-[1,1′-biphenyl]-4-yl)amino)-6-oxohexyl)-1H-1,2,3-triazol-4-yl)methoxy)-4-((((S)-4,11-diethyl-4-hydroxy-3,14-dioxy-3,4,12,14-tetrahydro-1H-pyrano[3′,4′:6,7]indolazino[1,2-b]quinolin-9-yl)oxy)methyl)phenoxy)-3,4,5-trihydroxytetrahydro-2H-pyran-2-carboxylate trisodium]
Relative volume RTV (X ± S.D.) [13, 21]: 0.28 ± 0.03
T/C (%) [13, 21]: 7.7%
Tumor inhibition rate (%) [13, 21]: 94.2%
Tumor weight (g, X ± S.D.) [13, 21]: 0.174 ± 0.164 g
Final body weight change (%) ([13]; BxPC-3 tumors more than 600 mm^3 after irinotecan 100 mg/kg i.p. qw × 2): −0.3%
IC50 ([1]; Adding βGU): 8.5 nM
IC50 ([1]; No βGU): 242 nM
IC50 ([2]; Adding βGU (β-glucuronidase)): 3.9 nM
IC50 [2, 20]: 147 nM
IC50 ([14]; Adding βGU): 24 nM
IC50 ([14]; No βGU): 1140 nM
IC50 ([3]; Adding βGU): 6.8 nM
IC50 ([3]; No βGU): 70 nM
IC50 ([4]; Adding βGU): 6.9 nM
IC50 ([4]; No βGU): 306 nM
IC50 ([5]; Adding βGU): 19 nM
IC50 ([5]; No βGU): 253 nM
T/C (%) [6]: 12.3%
Tumor inhibition rate (%) [6]: 91.1%
Final body weight change (%) ([6]; nude mouse): 0.0%
T/C (%) [15]: 13.3%
Tumor inhibition rate (%) [15]: 90.0%
Final body weight change (%) ([15]; 10 mg/kg i.v. qw × 2, nude mouse): −12.8%
T/C (%) [7]: 0.6%
Tumor inhibition rate (%) [7]: 99.7%
Final body weight change (%) ([7]; nude mouse): −4.6%
Relative volume RTV (X ± S.D.) [16]: 0.11 ± 0.02
T/C (%) [16]: 1.5%
Tumor inhibition rate (%) [16]: 98.9%
Tumor weight (g, X ± S.D.) [16]: 0.011 ± 0.005 g
Final body weight change (%) ([16]; nude mouse): 4.1%
Relative volume RTV (X ± S.D.) [17]: 0.23 ± 0.08
T/C (%) [17]: 4.9%
Tumor inhibition rate (%) [17]: 96.7%
Tumor weight (g, X ± S.D.) [17]: 0.055 ± 0.037 g
Final body weight change (%) ([17]; nude mouse): 2.9%
IC50 ([8]; Adding βGU): 10 nM
IC50 ([8]; No βGU): 600 nM
IC50 ([9]; Adding βGU): 5.2 nM
IC50 ([9]; No βGU): 147 nM
IC50 ([10]; Adding βGU): 14 nM
IC50 ([10]; No βGU): 219 nM
IC50 ([11]; Adding βGU): 27 nM
IC50 ([11]; No βGU): 1110 nM
IC50 ([12]; Adding βGU): 33 nM
IC50 ([12]; No βGU): 514 nM
Relative volume RTV (X ± S.D.) ([18]; 20 mg/kg i.v. qw × 2): 0.69 ± 0.15
T/C (%) ([18]; 20 mg/kg i.v. qw × 2): 13.6%
Tumor inhibition rate (%) ([18]; 20 mg/kg i.v. qw × 2): 94.2%
Tumor weight (g, X ± S.D.) ([18]; 20 mg/kg i.v. qw × 2): 0.069 ± 0.009 g
Final body weight change (%) ([18]; 20 mg/kg i.v. qw × 2, nude mouse): 13.6%
Relative volume RTV (X ± S.D.) [19, 22]: 1.10 ± 0.16
T/C (%) [19, 22]: 29.6%
Tumor inhibition rate (%) [19, 22]: 73.6%
Tumor weight (g, X ± S.D.) [19, 22]: 0.720 ± 0.492 g
Final body weight change (%) ([19]; HCT116 tumors more than 600 mm^3 after irinotecan 100 mg/kg qw×2): −10.7%

(2S,3S,4S,5R,6S)-6-(3-((1-(2-(2-(2-((4′-((E)-(8-amino-1-hydroxy-5,7-disulfononaphthalen-2-yl)diazenyl)-3,3′-dimethoxy-[1,1′-biphenyl]-4-yl)amino)-2-oxoethoxy)ethoxy)ethyl)-1H-1,2,3-triazol-4-yl)methoxy)-4-(((S)-4,11-diethyl-4-hydroxy-3,14-dioxo-3,4,12,14-tetrahydro-1H-pyrano[3′,4′:6,7]indolazino[1,2-b]quinolin-9-yl)oxy)methyl)phenoxy)-3,4,5-trihydroxytetrahydro-2H-pyran-2-carboxylate trisodium [Example 61]
IC50 ([1]; Adding βGU): 15 nM
IC50 ([1]; No βGU): 498 nM
IC50 ([2]; Adding βGU (β-glucuronidase)): 5.4 nM
IC50 [2, 20]: 220 nM
IC50 ([14]; Adding βGU): 33 nM
IC50 ([14]; No βGU): 395 nM
IC50 ([3]; Adding βGU): 6.5 nM
IC50 ([3]; No βGU): 212 nM
IC50 ([4]; Adding βGU): 2.6 nM
IC50 ([4]; No βGU): 283 nM
IC50 ([5]; Adding βGU): 5.9 nM
IC50 ([5]; No βGU): 244 nM
T/C (%) [15]: 27.2%
Tumor inhibition rate (%) [15]: 76.8%
Relative volume RTV (X ± S.D.) [16]: 0.25 ± 0.25
T/C (%) [16]: 3.7%
Tumor inhibition rate (%) [16]: 96.0%
Tumor weight (g, X ± S.D.) [16]: 0.039 ± 0.049 g
IC50 ([8]; Adding βGU): 12.5 nM
IC50 ([8]; No βGU): 782 nM
IC50 ([9]; Adding βGU): 8.4 nM
IC50 ([9]; No βGU): 225 nM
IC50 ([10]; Adding βGU): 8.6 nM
IC50 ([10]; No βGU): 518 nM
IC50 ([11]; Adding βGU): 7.1 nM
IC50 ([11]; No βGU): 915 nM
IC50 ([12]; Adding βGU): 40 nM
IC50 ([12]; No βGU): 565 nM

(2S,3S,4S,5R,6S)-6-(3-((1-(6-((4′-((E)-(8-amino-1-hydroxy-5,7-disulfonicnaphthalen-2-yl)diazenyl)-[1,1′-biphenyl]-4-yl)amino)-6-oxohexyl)-1H-1,2,3-triazol-4-yl)methoxy)-4-((((S)-4,11-diethyl-4-hydroxy-3,14-dioxo-3,4,12,14-tetrahydro-1H-pyrano[3′,4′:6,7]indolazino[1,2-b]quinolin-9-yl)oxy)methyl)phenoxy)-3,4,5-trihydroxytetrahydro-2H-pyran-2-carboxylate trisodium [Example 78]
IC50 ([1]; Adding βGU): 6.9 nM
IC50 ([1]; No βGU): 346 nM
IC50 ([2]; Adding βGU (β-glucuronidase)): 2.4 nM
IC50 [2, 20]: 42 nM
IC50 ([14]; Adding βGU): 26 nM
IC50 ([14]; No βGU): 170 nM
IC50 ([3]; Adding βGU): 3.3 nM
IC50 ([3]; No βGU): 28 nM
IC50 ([4]; Adding βGU): 7.3 nM
IC50 ([4]; No βGU): 329 nM
IC50 ([5]; Adding βGU): 11 nM
IC50 ([5]; No βGU): 301 nM
T/C (%) [6]: 15.8%
Tumor inhibition rate (%) [6]: 88.2%
T/C (%) [7]: 0.6%
Tumor inhibition rate (%) [7]: 99.4%
IC50 ([8]; Adding βGU): 22 nM
IC50 ([8]; No βGU): 984 nM
IC50 ([9]; Adding βGU): 7.6 nM
IC50 ([9]; No βGU): 267 nM
IC50 ([10]; Adding βGU): 9.6 nM
IC50 ([10]; No βGU): 530 nM
IC50 ([11]; Adding βGU): 13 nM
IC50 ([11]; No βGU): 610 nM
IC50 ([12]; Adding βGU): 35 nM
IC50 ([12]; No βGU): 458 nM
